Key:
[1] = biological target: T1, p38 MAPKα isoform (MAPK14) (Homo sapiens (Human), UniProt Q16539); assay: p38 MAPKα enzyme inhibition (FRET, Z-LYTE), Method 1; type: biochemical; conditions: Method 1 (Table 4a1)
[2] = test system: Balb/c mice; assay: (A) LPS-induced neutrophil accumulation in mice; type: in vivo, mouse; conditions: mice, test substance at 0.2 mg/mL, dosed 8 hr pre-LPS challenge; for Neutrophil numbers in BAL: +/−SEM, N = 8
Protocol: […] At T=0, mice are placed into an exposure chamber and exposed to LPS (7.0 mL, 0.5 mg/mL solution in PBS) for 30 min). After a further 8 hr the animals are anesthetized, their tracheas cannulated and BALF extracted by infusing and then withdrawing from their lungs 1.0 mL of PBS via the tracheal catheter. Total and differential white cell counts in the BALF samples are measured using a Neubaur haemocytometer. Cytospin smears of the BALF samples are prepared by centrifugation at 200 rpm for 5 min at RT and stained using a DiffQuik stain system (Dade Behring). Cells are counted using oil immersion microscopy. Data for neutrophil numbers in BAL are shown as mean±S.E.M. (standard error of the mean). The percentage inhibition of neutrophil accumulation is calculated for each treatment relative to vehicle treatment.

[3] = biological target: Syk (Homo sapiens (Human), UniProt P43405); assay: Syk enzyme inhibition (FRET, Z-LYTE); type: biochemical; conditions: different laboratory (Table 4a2)
Protocol: The enzyme inhibitory activities of compounds disclosed herein are determined by FRET using synthetic peptides labelled with both donor and acceptor fluorophores (Z-LYTE, Invitrogen Ltd., Paisley, UK).
The relevant enzyme (3000 ng/mL or 2000 ng/mL respectively, 2.5 μL) is incubated with the test compound (either 4 μg/mL, 0.4 μg/mL, 0.04 μg/mL, or 0.004 μg/mL, 2.5 μL each) for 2 hr at RT. The FRET peptides (8 μM, 2.5 μL), and appropriate ATP solutions (2.5 μL, 800 μM for c-Src, and 60 μM ATP for Syk) are then added to the enzymes/compound mixtures and incubated for 1 hr. Development reagent (protease, 5 μL) is added for 1 hr prior to detection in a fluorescence microplate reader (Varioskan® Flash, ThermoFisher Scientific).
In all cases, the site-specific protease cleaves non-phosphorylated peptide only and eliminates the FRET signal. Phosphorylation levels of each reaction are calculated using the ratio of coumarin emission (donor) over fluorescein emission (acceptor), for which high ratios indicate high phosphorylation and low ratios indicate low phosphorylation levels.

[4] = test system: Differentiated U937 cells; assay: (l) Cell viability: MTT assay; type: cell-based, human; conditions: 1 μg/mL
Method in brief: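 Differentiated U937 cells were exposed to compound at 1 or 10 μg/mL either 4 h in 5% FCS RPMI1640 or 24 h in 10% FCS RPMI1640, then given MTT for 1 h, DMSO-solubilised and read at 550 nm. Percent viability loss versus 0.5% DMSO vehicle; apparent gains appear negative.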

[5] = test system: β-catenin in d-U937 cells; assay: (m) Accumulation of β catenin in d-U937 cells; type: cell-based, human
Method in brief: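 PMA-differentiated U937 macrophage-type cells (100 ng/mL, 48–72 hr) were exposed to test compound or vehicle for 18 hr, then fixed. β-catenin was measured by cell ELISA (HRP/TMB, OD450-655) and normalised to crystal violet OD595. Signals below 15% of the standard control were designated "-ve".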

[6] = biological target: T1, p38 MAPKα isoform (MAPK14); assay: p38 MAPKα enzyme inhibition (FRET, Z-LYTE), Method 2; type: biochemical; conditions: Method 2, different laboratory (Table 4a2)
[7] = test system: HRV16; assay: (j) HRV16 induced CPE in MRC5 cells; type: cell-based; conditions: HRV-16
Protocol: The supernatants are aspirated, and then fresh media added followed by incubation for 4 days. Where appropriate, cells are pre-incubated with compound or DMSO for 2 hr, and the compounds and DMSO added again after washout of the virus.
After washing, 1% SDS in distilled water (100 μL) is added to each well, and the plates are shaken lightly for 1-2 hr prior to reading the absorbance at 660 nm. The percentage inhibition for each well is calculated. The IC50 value is calculated from the concentration-response curve generated by the serial dilutions of the test compounds.

[8] = test system: HCK; assay: Enzyme binding assay (Kinomescan)
Protocol: These assays were conducted by DiscoverX (formerly Ambit; San Diego, Calif.). The percentage inhibition produced by incubation with a test compound is calculated relative to the non-inhibited control.

T1 sequence (Q16539 whole entry, canonical isoform): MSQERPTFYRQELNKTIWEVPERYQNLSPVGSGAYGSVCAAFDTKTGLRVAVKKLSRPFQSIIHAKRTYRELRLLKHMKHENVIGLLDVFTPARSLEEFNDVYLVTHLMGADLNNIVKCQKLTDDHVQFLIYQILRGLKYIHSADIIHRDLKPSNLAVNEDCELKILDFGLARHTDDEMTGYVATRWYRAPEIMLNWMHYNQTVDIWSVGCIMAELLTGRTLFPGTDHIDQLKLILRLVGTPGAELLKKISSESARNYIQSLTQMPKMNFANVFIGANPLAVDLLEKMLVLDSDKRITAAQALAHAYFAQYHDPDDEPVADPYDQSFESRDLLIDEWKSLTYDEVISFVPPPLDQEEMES

COc1cc(Nc2nccc(Oc3ccc(NC(=O)Nc4cc(C(F)(F)C(F)(F)F)nn4-c4ccc(C)cc4)c4ccccc34)n2)cc(C(=O)NCCN2CCOCC2)c1 [Example 9, 3-Methoxy-N-(2-morpholinoethyl)-5-((4-((4-(3-(3-(perfluoroethyl)-1-(p-tolyl)-1H-pyrazol-5-yl)ureido)naphthalen-1-yl)oxy)pyrimidin-2-yl)amino)benzamide]
IC50 [1]: 49 nM | % inhibition of neutrophil numbers in BAL [2]: 51% | Neutrophil numbers in BAL [2]: 8.0 ± 1.6 ×10^5/mL | IC50 [3]: 43 nM | Cell viability at time point in d-U937 cells 4 h [4]: −ve (−ve and +ve indicate that the value is below and above respectively, the no significant effect threshold, defined as 30% inhibition at 1 μg/mL at the time point indicated.) | Cell viability at time point in d-U937 cells 24 h [4]: −ve (−ve and +ve indicate that the value is below and above respectively, the no significant effect threshold, defined as 30% inhibition at 1 μg/mL at the time point indicated.) | β-catenin inductive effect relative to the effect produced by the Reference Compound at 1 μg/mL ([5]; test concentration of 10 μg/mL, found to be negative): less than 15% | IC50 [6]: 174 nM

COc1ccc(-n2nc(C(C)C)cc2NC(=O)Nc2ccc(Oc3ccnc(Nc4cc(OC)cc(C(=O)NCCN5CCOCC5)c4)n3)c3ccccc23)cc1 [Example 53, 3-((4-((4-(3-(3-isopropyl-1-(4-methoxyphenyl)-1H-pyrazol-5-yl)ureido)naphthalen-1-yl)oxy)pyrimidin-2-yl)amino)-5-methoxy-N-(2-morpholinoethyl)benzamide]
IC50 [1]: 2 nM | IC50 [7]: 2 nM | Cell viability at time point in d-U937 cells 4 h [4]: −ve (−ve and +ve indicate that the value is below and above respectively, the no significant effect threshold, defined as 30% inhibition at 1 μg/mL at the time point indicated.) | Cell viability at time point in d-U937 cells 24 h [4]: −ve (−ve and +ve indicate that the value is below and above respectively, the no significant effect threshold, defined as 30% inhibition at 1 μg/mL at the time point indicated.) | IC50 [6]: 37 nM

COCC(=O)Nc1cc(Oc2ccc(NC(=O)Nc3cc(C(C)(C)C)nn3-c3ccc(C)cc3)c3ccccc23)ccn1 [Reference Compound, N-(4-(4-(3-(3-tert-butyl-1-p-tolyl-1H-pyrazol-5-yl)ureido)naphthalen-1-yloxy)pyridin-2-yl)-2-methoxyacetamide, reference compound]
% Inhibition of kinase binding at 500 nM HCK [8]: 100% | % inhibition of neutrophil numbers in BAL [2]: 60% | Neutrophil numbers in BAL [2]: 5.6 ± 0.86 ×10^5/mL | Cell viability at time point in d-U937 cells 4 h [4]: −ve (−ve and +ve indicate that the value is below and above respectively, the no significant effect threshold, defined as 30% inhibition at 1 μg/mL at the time point indicated.) | Cell viability at time point in d-U937 cells 24 h [4]: +ve (−ve and +ve indicate that the value is below and above respectively, the no significant effect threshold, defined as 30% inhibition at 1 μg/mL at the time point indicated.) | % β-catenin induction ([5]; 1 μg/mL test compound): 208%
